Literature values, collected in publication PMC11477967, “Review of the Structural Characteristics and Biological Activities of Tricholoma Secondary Metabolites (2018–2023)” (Molecules, 2024).
Each block holds one compound with its values, some of them ahead of it.

Tests used:
SMMC-7721 = system: SMMC-7721; design: method as in PMID 29758519, PMID 32534274
SW480 = system: SW480; design: method as in PMID 29758519, PMID 32534274
[1] = system: nitric oxide (NO) production in lipopolysaccharide (LPS)-induced RAW264.7 macrophages; conditions: for Bioactivities: Anti-inflammatory activity: Table 1 summary; for IC50: LPS-induced RAW264.7 macrophages
human tumor cell lines = system: human tumor cell lines; design: method as in PMID 29758519, PMID 32534274, PMID 26186257; conditions: Table 1 summary
A-549 [2] = system: A-549
MCF-7 [3] = system: MCF-7
A549 = system: A549; design: method as in doi:10.1177/1934578X1801300901; conditions: said to surpass shikonin
Hep G2 [4] = system: Hep G2; design: method as in doi:10.1177/1934578X1801300901; conditions: said to surpass shikonin
Caki-1 [5] = system: Caki-1; design: method as in doi:10.1177/1934578X1801300901
MCF-7 [6] = system: MCF-7; design: method as in doi:10.1177/1934578X1801300901
WISH = system: WISH; design: method as in doi:10.1177/1934578X1801300901
human cancer cell lines = conditions: for Bioactivities: Cytotoxic against human cancer cell lines: Table 1 summary
A-549 [7] = system: A-549; design: method as in PMID 37175274
Hep G2 [8] = system: Hep G2; design: method as in PMID 37175274
Caki-1 [9] = system: Caki-1; design: method as in PMID 37175274
MCF-7 [10] = system: MCF-7; design: method as in PMID 37175274
bacteria = system: bacteria; design: method as in PMID 32534274, PMID 26186257, PMID 34604687, PMID 28794307; conditions: Table 1 summary

SMILES: COC(=O)C(Cc1ccccc1)NC(=O)CC(C)(O)CC(=O)OC1C(O)CC2(C)C3=C(CCC2C1(C)C)C1(C)CCC(C(C)CCC(O)C(C)(C)O)C1(C)C(O)C3 (stereo not drawn) [Compound 2, pardinol B]
IC50 (SMMC-7721): < 40 µM | IC50 (SW480): < 40 µM | Bioactivities: Anti-inflammatory activity [1]: Anti-inflammatory activity | Bioactivities: Anti-cancer activity (human tumor cell lines): Anti-cancer activity | IC50 (HL-60): < 40 µM | IC50 (A-549 [2]): < 40 µM | IC50 (MCF-7 [3]): < 40 µM

SMILES: COC(=O)C(NC(=O)CC(C)(O)CC(=O)OC1CC2(C)C3=C(CCC2C(C)(C)C1O)C1(C)CCC(C(C)CCC(O)C(C)(C)O)C1(C)C(O)C3)C(OC(C)=O)c1ccccc1 (stereo not drawn) [Compound 5, pardinol E]
Bioactivities: Anti-inflammatory activity [1]: Anti-inflammatory activity | Bioactivities: Anti-cancer activity (human tumor cell lines): Anti-cancer activity

SMILES: COC(=O)C(NC(=O)CC(C)(O)CC(=O)OC1C(O)CC2(C)C3=C(CCC2C1(C)C)C1(C)CCC(C(C)CCC(O)C(C)(C)O)C1(C)C(O)C3)C(OC(C)=O)c1ccccc1 (stereo not drawn) [Compound 6, pardinol F]
Bioactivities: Anti-inflammatory activity [1]: Anti-inflammatory activity | Bioactivities: Anti-cancer activity (human tumor cell lines): Anti-cancer activity

SMILES: COC(=O)C(NC(=O)CC(C)(O)CC(=O)OC1C(O)CC2(C)C3=C(CCC2C1(C)C)C1(C)CCC(C2CCC(C(C)(C)O)OC2O)C1(C)C(O)C3)C(O)c1ccccc1 (stereo not drawn) [Compound 7, pardinol G]
Bioactivities: Anti-inflammatory activity [1]: Anti-inflammatory activity | Bioactivities: Anti-cancer activity (human tumor cell lines): Anti-cancer activity

SMILES: COC(=O)C(NC(=O)CC(C)(O)CC(=O)OC1C(O)CC2(C)C3=C(CCC2C1(C)C)C1(C)CCC(C2CCC(C(C)(C)O)OC2O)C1(C)C(O)C3)C(OC(C)=O)c1ccccc1 (stereo not drawn) [Compound 8, pardinol H]
Bioactivities: Anti-inflammatory activity [1]: Anti-inflammatory activity | Bioactivities: Anti-cancer activity (human tumor cell lines): Anti-cancer activity

SMILES: C=C(CCC(C)C1CCC2(C)C3=C(CC(O)C12C)C1(C)CCC(OC(=O)CC(=O)OC)C(C)(C)C1CC3)C(C)C(=O)O [Compound 16, (25S)-(+)-12α-hydroxy-3α-methylcarboxyacetate-24-methyllanosta-8,24(31)-diene-26-oic acid]
Bioactivities: Anti-cancer activity (human tumor cell lines): Anti-cancer activity

SMILES: CC(C)C(C)C=CC(C)C1CCC2C3(O)C=CC4=CC(=O)CCC4(C)C3CCC12C (stereo not drawn) [Compound 26, isocyathisterol]
IC50 (SMMC-7721): < 40 µM | IC50 (SW480): < 40 µM | Bioactivities: Anti-cancer activity (human tumor cell lines): Anti-cancer activity | IC50 (HL-60): < 40 µM | IC50 (A-549 [2]): < 40 µM | IC50 (MCF-7 [3]): < 40 µM

SMILES: CC(C)[C@@H](C)/C=C/[C@@H](C)[C@H]1CC(=O)[C@H]2C3=C(CC[C@@]21C)[C@@]1(C)CC[C@H](O)CC1=CC3=O [Compound 29, 3β-hydroxyl-(22E,24R)-ergosta-5,8,22-trien-7,15-dione]
Bioactivities: Anti-cancer activity (human tumor cell lines): Anti-cancer activity | IC50 (HL-60): < 10 µM

SMILES: CC(C)[C@@H](C)/C=C/[C@@H](C)[C@H]1CC[C@H]2C3=C(CC[C@]12C)[C@@]1(C)CC[C@H](O)CC1=CC3=O [Compound 30, 3β-hydroxyl-(22E,24R)-ergosta-5,8,22-trien-7-one]
Bioactivities: Anti-cancer activity (human tumor cell lines): Anti-cancer activity | IC50 (HL-60): < 10 µM

IC50 (HL-60): < 40 µM | IC50 (A-549 [2]): < 40 µM | IC50 (MCF-7 [3]): < 40 µM
SMILES: CC(C)[C@@H](C)/C=C/[C@@H](C)[C@H]1C[C@H](O)C2=C3C(=O)C=C4C[C@@H](O)CC[C@]4(C)[C@H]3CC[C@@]21C [Compound 32, 3β,15α-dihydroxyl-(22E,24R)-ergosta-5,8(14),22-trien-7-one]
IC50 (SMMC-7721): < 40 µM | IC50 (SW480): < 40 µM | Bioactivities: Anti-cancer activity (human tumor cell lines): Anti-cancer activity

SMILES: CC(C)[C@@H](C)/C=C/[C@@H](C)[C@H]1CC(=O)C2=C3C(=O)C=C4C[C@@H](O)CC[C@]4(C)[C@H]3CC[C@@]21C [Compound 34, 3β-hydroxyl-(22E,24R)-ergosta-5,8(14),22-trien-7,15-dione]
Bioactivities: Anti-cancer activity (human tumor cell lines): Anti-cancer activity

SMILES: CC(C)[C@@H](C)/C=C/[C@@H](C)[C@H]1CC[C@H]2C3=C(CC[C@]12C)[C@@]1(C)CC[C@H](O)C[C@@]12O[C@H]2[C@@H]3O [Compound 35, 5α,6α-epoxy-(22E,24R)-ergosta-8,22-diene-3β,7β-diol]
Bioactivities: Anti-cancer activity (human tumor cell lines): Anti-cancer activity

IC50 (HL-60): < 40 µM | IC50 (A-549 [2]): < 40 µM | IC50 (MCF-7 [3]): < 40 µM
SMILES: CC(C)C(C)C=CC(C)C1CCC2C3=CC(=O)OC3(O)CCC21C (stereo not drawn) [Compound 41, demethylincisterol A3]
IC50 (SMMC-7721): < 40 µM | IC50 (SW480): < 40 µM | Bioactivities: Anti-cancer activity (human tumor cell lines): Anti-cancer activity

IC50 (HL-60): < 40 µM | IC50 (MCF-7 [3]): < 40 µM
SMILES: COC12CCC3(C)C(CCC3C(C)C=CC(C)C(C)C)C1=CC(=O)O2 (stereo not drawn) [Compound 42, volemolide]
IC50 (SMMC-7721): < 40 µM | IC50 (SW480): < 40 µM | Bioactivities: Anti-cancer activity (human tumor cell lines): Anti-cancer activity

IC50 [1]: 27.6 µM
SMILES: CC(C)[C@@H](C)/C=C/[C@@H](C)[C@@H](CC(=O)O)[C@@]1(C)CCC2=C(C1=O)[C@H](O)[C@@H]1O[C@@]13C[C@@H](O)CC[C@]23C [Compound 46, tricholosterol A]
Bioactivities: Anti-inflammatory activity [1]: Anti-inflammatory activity

IC50 [1]: 31.8 µM
SMILES: CC(C=CC(C)(O)C1CC(O)C2C3=CC(=O)OC3=CCC21C)C(C)(C)O (stereo not drawn) [Compound 49, tricholosterol D]
Bioactivities: Anti-inflammatory activity [1]: Anti-inflammatory activity

SMILES: C=C1CCC(CC=C2CCC3(OC2)OC2(O)CCC3(C)OC2(C)C)C(C)(C)C1C(O)C=C1CCOC1=O (stereo not drawn) [Compound 55, saponaceolide T]
antiproliferative effects (A549): strong antiproliferative effects | antiproliferative effects (Hep G2 [4]): strong antiproliferative effects | antiproliferative effects (Caki-1 [5]): strong antiproliferative effects | antiproliferative effects (MCF-7 [6]): strong antiproliferative effects | antiproliferative effects (WISH): strong antiproliferative effects | Bioactivities: Cytotoxic against human cancer cell lines (human cancer cell lines): Cytotoxic against human cancer cell lines

SMILES: C=C1CCC(CCC2CCC3(OC2)OC2(O)CCC3(C)OC2(C)C)C(C)(C)C1CC=C1CCOC1=O (stereo not drawn) [Compound 57, saponaceolide B]
inhibitory effects (A-549 [7]): notable inhibitory effects | inhibitory effects (Hep G2 [8]): notable inhibitory effects | inhibitory effects (Caki-1 [9]): notable inhibitory effects | inhibitory effects (MCF-7 [10]): notable inhibitory effects | Bioactivities: Cytotoxic against human cancer cell lines (human cancer cell lines): Cytotoxic against human cancer cell lines

SMILES: C=C1CCC(CCC2CCC3(OC2)OC2(O)CCC3(C)OC2(C)C)C(C)(C)C1C(O)C=C1C(=O)OCC1O (stereo not drawn) [Compound 58, saponaceolide C]
antiproliferative effects (A549): strong antiproliferative effects | antiproliferative effects (Hep G2 [4]): strong antiproliferative effects | antiproliferative effects (Caki-1 [5]): strong antiproliferative effects | antiproliferative effects (MCF-7 [6]): strong antiproliferative effects | antiproliferative effects (WISH): strong antiproliferative effects | Bioactivities: Cytotoxic against human cancer cell lines (human cancer cell lines): Cytotoxic against human cancer cell lines

SMILES: C=C1CCC(CCC2CCC3(OC2)OC2(O)CCC3(C)OC2(C)C)C(C)(C)C1C(O)C=C1CCOC1=O (stereo not drawn) [Compound 61, saponaceolide H]
antiproliferative effects (A549): strong antiproliferative effects | antiproliferative effects (Hep G2 [4]): strong antiproliferative effects | antiproliferative effects (Caki-1 [5]): strong antiproliferative effects | antiproliferative effects (MCF-7 [6]): strong antiproliferative effects | antiproliferative effects (WISH): strong antiproliferative effects | Bioactivities: Cytotoxic against human cancer cell lines (human cancer cell lines): Cytotoxic against human cancer cell lines | cytotoxicity rank (human cancer cell lines; among 55, 56, 58, 60, 61, cell line not specified): most significant cytotoxicity

SMILES: C=C1CCC(CC=C2CCC3(OC2)OC2(O)CCC3(C)OC2(C)C)C(C)(C)C1CC=C1CCOC1=O (stereo not drawn) [Compound 62, saponaceolide J]
inhibitory effects (A-549 [7]): notable inhibitory effects | inhibitory effects (Hep G2 [8]): notable inhibitory effects | inhibitory effects (Caki-1 [9]): notable inhibitory effects | inhibitory effects (MCF-7 [10]): notable inhibitory effects | Bioactivities: Cytotoxic against human cancer cell lines (human cancer cell lines): Cytotoxic against human cancer cell lines

IC50 [1]: 16.2 µM
SMILES: C=C1CC[C@@H](CCO)C(C)(C)[C@H]1C/C=C1/C(=O)OC[C@@H]1O [Compound 70, tricholopardin B]
Bioactivities: Anti-inflammatory activity [1]: Anti-inflammatory activity

SMILES: CCC1(O)OCC(N2C(=O)CCC2OC)C2=C1C(OC)CC2OC(=O)CC(C)C (stereo not drawn) [Compound 84, pardinumone A]
Bioactivities: Antibacterial activity (bacteria): Antibacterial activity

SMILES: CCC1(O)OCC(N2C(=O)CCC2OC)C2=C1C(OC)CC2OC(=O)CC(C)C (stereo not drawn) [Compound 85, pardinumone B]
Bioactivities: Antibacterial activity (bacteria): Antibacterial activity

SMILES: CC=C1OCC(NC(=O)CCC(N)C(=O)O)C2=C1C(OC)CC2OC(=O)CC(C)C (stereo not drawn) [Compound 86, pardinumone C]
Bioactivities: Antibacterial activity (bacteria): Antibacterial activity

SMILES: CCC(=O)C1=C(C(COC(C)=O)NC(=O)CCC(N)C(=O)O)C(OC(=O)CC(C)C)CC1OC (stereo not drawn) [Compound 87, pardinumone D]
Bioactivities: Antibacterial activity (bacteria): Antibacterial activity
